Assay results published in patent publication US12588678B2, “Oxazoline compound, synthesis method therefor and application thereof” (NANKAI UNIVERSITY, priority 2019, dated 2026).

Assays:
[1] = test system: Tetranychus cinnabarinus mite eggs; assay: Activity against mite eggs, dipping method on bean seedling leaves; assay type: in vivo; conditions: for mortality at 1 µg/mL: read-out: mortality of mite eggs (%), 1 mg/L; for mortality at 10 µg/mL: read-out: mortality of mite eggs (%), 10 mg/L; for mortality at 100 µg/mL: read-out: mortality of mite eggs (%), 100 mg/L; for mortality at 200 µg/mL: read-out: mortality of mite eggs (%), 200 mg/L
Text: (§1) The assay examples are used to illustrate the acaricidal activity against Tetranychus cinnabarinus (mortality of mite larvae and mortality of mite eggs) of the compounds having the structure represented by formula (I), and the results are shown in tables 1 to 9, where mortality of mite larvae % =(number of dead mite larvae applied/total number of mite larvae applied)×100, and mortality of mite eggs %= (number of dead mite eggs applied/total number of mite eggs applied)×100.
Tetranychus cinnabarinus bred indoors on bean seedlings was used as a test subject by the dipping method. Move female adult mites onto the newly grown complete bean seedling leaves with two leaves, cut off the bean seedlings, place the bean seedlings in a greenhouse with illumination at 25° C. for laying eggs for 24 hours, then remove adult mites and keep mite eggs. After continuously culturing in the greenhouse for one day, completely soak the bean seedling leaves containing the acarid eggs into the prepared sample solution to be tested for 5-6 seconds by using tweezers, slightly throw off residual liquid, put the bean seedling leaves back to the culture cup, continuously culture for 4 days and then check the result. One of the plants was immersed in a solution containing no sample to be tested and the remaining additives were identical to the sample solution as a blank control. Each compound was replicated three times.

[2] = test system: Tetranychus cinnabarinus mite larvae; assay: Larvicidal activity test, dipping method on bean seedling leaves; assay type: in vivo; conditions: for mortality at 100 µg/mL: read-out: mortality of mite larvae (%), 100 mg/L; for mortality at 200 µg/mL: read-out: mortality of mite larvae (%), 200 mg/L; for mortality at 10 µg/mL: read-out: mortality of mite larvae (%), 10 mg/L; for mortality at 1 µg/mL: read-out: mortality of mite larvae (%), 1 mg/L
Text: as §1
Tetranychus cinnabarinus bred indoors on bean seedlings was used as a test subject by the dipping method. Move adult mites onto the newly grown complete bean seedling leaves with two leaves, cut off the bean seedlings, place the bean seedlings in a greenhouse with illumination at 25° C. for laying eggs for 24 hours, then remove adult mites and keep mite eggs. And continuously culture in the greenhouse for 5 days until mite eggs hatch into mite larvae (ensuring that the number of the mites on each tested leaf is not less than 60).
Completely immerse the bean seedling leaves containing the mite larvae into the sample solution to be detected with Tween at the prepared concentration for 5-6 seconds by using tweezers, slightly throw off residual liquid, put the bean seedling leaves back to the culture cup, continuously culture for 4 days and check the result. One of the plants was immersed in a solution containing no sample to be tested and the remaining additives were identical to the sample solution as a blank control. Each compound was replicated three times.

[3] = Tetranychus cinnabarinus, 96 h, checked after 4 days

| SMILES | mortality at 1 µg/mL [1, 3] [%] | mortality at 10 µg/mL [1, 3] [%] | mortality at 100 µg/mL [1, 3] [%] | mortality at 200 µg/mL [1, 3] [%] | mortality at 100 µg/mL [2, 3] [%] | mortality at 200 µg/mL [2, 3] [%] | mortality at 10 µg/mL [2, 3] [%] | mortality at 1 µg/mL [2, 3] [%] | mortality at 0.01 µg/mL ([1]; Tetranychus cinnabarinus, 96 h, read-out: mortality of mite eggs (%), 0.01 mg/L, checked after 4 days) [%] | mortality at 0.05 µg/mL ([1]; Tetranychus cinnabarinus, 96 h, read-out: mortality of mite eggs (%), 0.05 mg/L, checked after 4 days) [%] | mortality at 0.1 µg/mL ([1]; Tetranychus cinnabarinus, 96 h, read-out: mortality of mite eggs (%), 0.1 mg/L, checked after 4 days) [%] | activity on mite eggs, times that of etoxazole ([1]; relative to etoxazole) [times] | acaricidal activity compared with etoxazole ([2]; Tetranychus cinnabarinus eggs and larvae, etoxazole as reference) | mortality at 0.01 µg/mL ([2]; Tetranychus cinnabarinus, 96 h, read-out: mortality of mite larvae (%), 0.01 mg/L, checked after 4 days) [%] | mortality at 0.05 µg/mL ([2]; Tetranychus cinnabarinus, 96 h, read-out: mortality of mite larvae (%), 0.05 mg/L, checked after 4 days) [%] | mortality at 0.1 µg/mL ([2]; Tetranychus cinnabarinus, 96 h, read-out: mortality of mite larvae (%), 0.1 mg/L, checked after 4 days) [%] |
| --- | --- | --- | --- | --- | --- | --- | --- | --- | --- | --- | --- | --- | --- | --- | --- | --- |
| Fc1cccc(F)c1C1=NC(c2ccc(CN3CCCC3)cc2)CO1 (stereo not drawn) [Compound R1-1] | 30 | 60 | 70 | 95 | 50 | 70 |  |  |  |  |  |  |  |  |  |  |
| Fc1cccc(F)c1C1=NC(c2ccc(CN3CCCCCC3)cc2)CO1 (stereo not drawn) [Compound R1-2] |  | 55 | 80 | 95 | 75 | 90 | 35 |  |  |  |  |  |  |  |  |  |
| Fc1cccc(F)c1C1=NC(c2ccc(CN3CCCCCCC3)cc2)CO1 (stereo not drawn) [Compound R1-3] | 55 | 70 | 90 | 100 | 95 | 100 | 70 | 55 |  |  |  |  |  |  |  |  |
| Fc1cccc(F)c1C1=NC(c2ccc(CN3CCOCC3)cc2)CO1 (stereo not drawn) [Compound R1-4] |  | 50 | 70 | 90 | 70 | 90 | 30 |  |  |  |  |  |  |  |  |  |
| Fc1cccc(F)c1C1=NC(c2ccc(Cn3cccc3)cc2)CO1 (stereo not drawn) [Compound R1-5] |  | 45 | 100 | 100 | 90 | 100 | 40 |  |  |  |  |  |  |  |  |  |
| Fc1cccc(F)c1C1=NC(c2ccc(CN3CC=CC3)cc2)CO1 (stereo not drawn) [Compound R1-6] | 50 | 70 | 100 | 100 | 100 | 100 | 70 | 50 |  |  |  |  |  |  |  |  |
| CC(=O)N1CCN(Cc2ccc(C3COC(c4c(F)cccc4F)=N3)cc2)C1=O (stereo not drawn) [Compound R1-8] |  | 40 | 95 | 100 | 95 | 100 | 65 | 35 |  |  |  |  |  |  |  |  |
| O=C1CCC(=O)N1Cc1ccc(C2COC(c3c(F)cccc3F)=N2)cc1 (stereo not drawn) [Compound R1-9] |  | 50 | 70 | 95 | 80 | 85 | 35 |  |  |  |  |  |  |  |  |  |
| O=C1c2ccccc2C(=O)N1Cc1ccc(C2COC(c3c(F)cccc3F)=N2)cc1 (stereo not drawn) [Compound R1-10] | 85 | 90 | 100 | 100 | 100 | 100 | 95 | 80 | 40 | 65 | 75 | 10 | higher acaricidal activity than etoxazole | 40 | 55 | 70 |
| Fc1cccc(F)c1C1=NC(c2ccc(Cn3cccn3)cc2)CO1 (stereo not drawn) [Compound R1-12] |  | 50 | 80 | 90 | 70 | 100 | 40 |  |  |  |  |  |  |  |  |  |
